27 compounds from patent US20230089073A1 (Carmot Therapeutics, Inc., priority 2021, published 2023) can be followed below.

The assay deals with T1, human GLP-1 receptor (Homo sapiens, UniProt P43220).
T1 construct: expressed in transfected cells
The assay is described as follows: GLP-1R cAMP Assay. The format is cell-based. To be noted: cAMP accumulation in CHO cells stably overexpressing the human GLP-1 receptor; 30 min treatment; HitHunter cAMP kit; read-out: EC50. In short, it runs like this: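 CHO cells stably overexpressing human GLP-1R, 10,000 cells/well, treated with compound in 20-point dose response in triplicate for 30 min. cAMP accumulation read by enzyme-complementation luminescence after lysis and overnight incubation; dose-response curves fitted.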

T1 sequence (P43220 24-463): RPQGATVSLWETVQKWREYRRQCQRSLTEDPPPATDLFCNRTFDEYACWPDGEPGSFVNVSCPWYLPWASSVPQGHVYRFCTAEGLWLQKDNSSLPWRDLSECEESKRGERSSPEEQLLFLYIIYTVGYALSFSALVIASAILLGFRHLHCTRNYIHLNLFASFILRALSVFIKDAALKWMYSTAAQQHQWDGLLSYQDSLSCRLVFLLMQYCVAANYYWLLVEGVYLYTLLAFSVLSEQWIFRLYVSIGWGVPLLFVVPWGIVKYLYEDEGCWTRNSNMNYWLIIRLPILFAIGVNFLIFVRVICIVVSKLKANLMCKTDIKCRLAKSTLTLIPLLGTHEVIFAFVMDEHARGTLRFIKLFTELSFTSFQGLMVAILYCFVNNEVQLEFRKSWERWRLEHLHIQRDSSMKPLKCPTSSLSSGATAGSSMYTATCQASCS

For orientation: EC50 means the concentration at which the effect is half-maximal. As for `CCn1cncc1Cn1c(CN2CCC(Cc3cnc(COc4ccc(Cl)cc4C)o3)CC2)nc2ccc(C(=O)O)cc21` [Compound 141, 2-{[4-({2-[(4-chloro-2-methylphenoxy)methyl]-1,3-oxazol-5-yl}methyl)piperidin-1-yl]methyl}-1-[(1-ethyl-1H-imidazol-5-yl)methyl]-1H-1,3-benzodiazole-6-carboxylic acid], the 50% effective concentration (EC50) was < 50 nM.
On to `O=C(O)c1ccc2nc(CN3CCN(C(=O)c4ncc(COc5ccc(Cl)cc5Cl)o4)CC3)n(C[C@@H]3CCO3)c2c1` [Compound 113, 2-[(4-{5-[(2,4-dichlorophenoxy)methyl]-1,3-oxazole-2-carbonyl}piperazin-1-yl)methyl]-1-{[(2S)-oxetan-2-yl]methyl}-1H-1,3-benzodiazole-6-carboxylic acid], for which the concentration giving a half-maximal response (EC50) was > 500 nM.
For the compound `N#CCC1(Cn2c(CN3CCC(Oc4ccnc(COc5ccc(Cl)cc5Cl)n4)CC3)nc3ccc(C(=O)O)cc32)CC1` [Compound 340], the EC50 was < 50 nM.
With `C[C@H]1C[C@@H](Oc2ccnc(COc3ccc(Cl)cc3Cl)c2)CCN1Cc1nc2ccc(C(=O)O)cc2n1C[C@@H]1CCO1` [Compound 283, 2-{[(2S,4S)-4-({2-[(2,4-dichlorophenoxy)methyl]pyridin-4-yl}oxy)-2-methylpiperidin-1-yl]methyl}-1-{[(2S)-oxetan-2-yl]methyl}-1H-1,3-benzodiazole-6-carboxylic acid] the figure was < 50 nM; with `N#Cc1ccc(Oc2cccc(C(=O)N3CCN(Cc4nc5ccc(C(=O)O)cc5n4C[C@@H]4CCO4)CC3)c2)c(F)c1` [Example 10, (S)-2-((4-(3-(4-Cyano-2-fluorophenoxy)benzoyl)piperazin-1-yl)methyl)-1-(oxetan-2-ylmethyl)-1H-benzo[d]imidazole-6-carboxylic acid], > 500 nM; with `O=C(O)c1ccc2nc(CN3CCC(Oc4cccnc4COc4ccc(Cl)cc4Cl)CC3)n(C[C@@H]3CCO3)c2c1` [Compound 286, 2-{[4-({2-[(2,4-dichlorophenoxy)methyl]pyridin-3-yl}oxy)piperidin-1-yl]methyl}-1-{[(2S)-oxetan-2-yl]methyl}-1H-1,3-benzodiazole-6-carboxylic acid], > 500 nM.
As to `N#Cc1ccc(OCc2cc(OC3CCN(Cc4nc5ccc(C(=O)O)cc5n4C[C@@H]4CCO4)CC3)ccn2)c(Cl)c1` [Compound 358], the 50% effective concentration (EC50) was < 50 nM.
Then `N#Cc1cc(Cl)ccc1OCc1cccc(OC2CCN(Cc3nc4ccc(C(=O)O)cc4n3Cc3cnco3)CC2)n1` [Compound 252, 2-{[4-({6-[(4-chloro-2-cyanophenoxy)methyl]pyridin-2-yl}oxy)piperidin-1-yl]methyl}-1-[(1,3-oxazol-5-yl)methyl]-1H-1,3-benzodiazole-6-carboxylic acid], with > 500 nM; and `COC1(Cn2c(CN3CCC(Oc4ccnc(COc5ccc(Cl)cc5F)c4)CC3)nc3ccc(C(=O)O)cc32)CC1` [Example 368, 2-((4-((2-((4-Chloro-2-fluorophenoxy)methyl)pyridin-4-yl)oxy)piperidin-1-yl)methyl)-1-((1-methoxycyclopropyl)methyl)-1H-benzo[d]imidazole-6-carboxylic acid], with < 50 nM.
In the case of `O=C(O)c1ccc2nc(CN3CCC(Cc4ccc(COc5ccc(Cl)cc5Cl)o4)CC3)n(C[C@@H]3CCO3)c2c1` [Example 72, (S)-2-((4-((5-((2,4-Dichlorophenoxy)methyl)furan-2-yl)methyl)piperidin-1-yl)methyl)-1-(oxetan-2-ylmethyl)-1H-benzo[d]imidazole-6-carboxylic acid], the EC50 is < 50 nM.
With `CCn1cncc1Cn1c(CN2CCC([C@H](F)c3cccc(COc4ccc(Cl)cc4Cl)c3)CC2)nc2ccc(C(=O)O)cc21` (single isomer, unassigned) [Compound 202], the concentration giving a half-maximal response (EC50) is < 50 nM.
On to `O=C(O)c1ccc2nc(CN3CCC(Oc4cccc(COc5ccc(Cl)cc5F)n4)CC3)n(C[C@@H]3CCO3)c2c1` [Compound 249, 2-{[4-({6-[(4-chloro-2-fluorophenoxy)methyl]pyridin-2-yl}oxy)piperidin-1-yl]methyl}-1-{[(2S)-oxetan-2-yl]methyl}-1H-1,3-benzodiazole-6-carboxylic acid], for which the EC50 was < 50 nM.
For the compound `O=C(O)c1ccc2nc(CN3CCC(Oc4ccnc(COc5ccc(F)cc5Cl)c4)CC3)n(C[C@@H]3CCO3)c2c1` [Example 220, (S)-2-((4-((2-((2-Chloro-4-fluorophenoxy)methyl)pyridin-4-yl)oxy)piperidin-1-yl)methyl)-1-(oxetan-2-ylmethyl)-1H-benzo[d]imidazole-6-carboxylic acid], the EC50 was < 50 nM.
Regarding `N#CCC1(Cn2c(CN3CCC(Oc4ccnc(COc5ccc(C#N)cc5F)n4)CC3)nc3c(F)cc(C(=O)O)cc32)CC1` [Compound 339], the EC50 is < 50 nM.
`Cc1ccc(OCc2ccc(C(=O)N3CCN(Cc4nc5ccc(C(=O)O)cc5n4C[C@@H]4CCO4)CC3)o2)c(C)c1` [Compound 41, 2-[(4-{5-[(2,4-dimethylphenoxy)methyl]furan-2-carbonyl}piperazin-1-yl)methyl]-1-{[(2S)-oxetan-2-yl]methyl}-1H-1,3-benzodiazole-6-carboxylic acid]: the EC50 lay within 50 to 500 nM.
Take `Cc1ccc(N(C)c2ccc(C3CC3)c(C(=O)N3CCN(Cc4nc5ccc(C(=O)O)cc5n4C[C@@H]4CCO4)CC3)c2)c(Cl)c1` [Compound 93, 2-[(4-{5-[(2-chloro-4-methylphenyl)(methyl)amino]-2-cyclopropylbenzoyl}piperazin-1-yl)methyl]-1-{[(2S)-oxetan-2-yl]methyl}-1H-1,3-benzodiazole-6-carboxylic acid]: the EC50 was in the range of 50 to 500 nM.
On to `Cc1ccc(N(C)c2cccc(C=C3CCN(Cc4nc5ccc(C(=O)O)cc5n4C[C@@H]4CCO4)CC3)c2)c(Cl)c1` [Example 106, (S)-2-((4-(3-((2-chloro-4-methylphenyl)(methyl)amino)benzylidene)piperidin-1-yl)methyl)-1-(oxetan-2-ylmethyl)-1H-benzo[d]imidazole-6-carboxylic acid], for which the EC50 lay in the range of 50 to 500 nM.
With `N#Cc1cc(F)ccc1OCc1cccc(OC2CCN(Cc3nc4ccc(C(=O)O)cc4n3C[C@@H]3CCO3)CC2)c1` [Example 206, (S)-2-((4-(3-((2-Cyano-4-fluorophenoxy)methyl)phenoxy)piperidin-1-yl)methyl)-1-(oxetan-2-ylmethyl)-1H-benzo[d]imidazole-6-carboxylic acid] the figure was < 50 nM.
On to `O=C(O)c1ccc2nc(CN3CCN(C(=O)c4ccc(COc5ccc(Cl)cc5)o4)CC3)n(C[C@@H]3CCO3)c2c1` [Compound 31, 2-[(4-{5-[(4-chlorophenoxy)methyl]furan-2-carbonyl}piperazin-1-yl)methyl]-1-{[(2S)-oxetan-2-yl]methyl}-1H-1,3-benzodiazole-6-carboxylic acid], for which the EC50 is > 500 nM.
For the compound `CN(c1cc(C(=O)N2CCN(Cc3nc4ccc(C(=O)O)cc4n3C[C@@H]3CCO3)CC2)ncn1)C1CCCCC1` [Example 61, (S)-2-((4-(6-(Cyclohexyl(methyl)amino)pyrimidine-4-carbonyl)piperazin-1-yl)methyl)-1-(oxetan-2-ylmethyl)-1H-benzo[d]imidazole-6-carboxylic acid], the EC50 is > 500 nM.
Take `CCn1cncc1Cn1c(CN2CCC(Oc3ccnc(COc4ccc(Cl)cc4F)c3)CC2)nc2ccc(C(=O)O)cc21` [Example 230, 2-((4-((2-((4-Chloro-2-fluorophenoxy)methyl)pyridin-4-yl)oxy)piperidin-1-yl)methyl)-1-((1-ethyl-1H-imidazol-5-yl)methyl)-1H-benzo[d]imidazole-6-carboxylic acid]: the EC50 was < 50 nM.
On to `N#Cc1cc(Cl)ccc1OCc1cccc(OC2CCN(Cc3nc4ccc(C(=O)O)cc4n3C[C@@H]3CCO3)CC2)n1` [Compound 248, 2-{[4-({6-[(4-chloro-2-cyanophenoxy)methyl]pyridin-2-yl}oxy)piperidin-1-yl]methyl}-1-{[(2S)-oxetan-2-yl]methyl}-1H-1,3-benzodiazole-6-carboxylic acid], for which the EC50 fell in the range of 50 to 500 nM.
Regarding `CCn1cncc1Cn1c(CN2CCC(CO)(Cc3ccnc(COc4ccc(Cl)cc4Cl)c3)CC2)nc2ccc(C(=O)O)cc21` [Example 150, 2-((4-((2-((2,4-Dichlorophenoxy)methyl)pyridin-4-yl)methyl)-4-(hydroxymethyl)piperidin-1-yl)methyl)-1-((1-ethyl-1H-imidazol-5-yl)methyl)-1H-benzo[d]imidazole-6-carboxylic acid], the EC50 is < 50 nM.
In the case of `O=C(O)c1ccc2nc(CN3CCC(Cc4cccc(COc5ccc(Cl)cc5Cl)c4F)CC3)n(C[C@@H]3CCO3)c2c1` [Compound 135, 2-{[4-({3-[(2,4-dichlorophenoxy)methyl]-2-fluorophenyl}methyl)piperidin-1-yl]methyl}-1-{[(2S)-oxetan-2-yl]methyl}-1H-1,3-benzodiazole-6-carboxylic acid], the concentration giving a half-maximal response (EC50) was in the range of 50 to 500 nM.
Regarding `CCn1cncc1Cn1c(CN2CCN(C(=O)c3cccc(OCc4ccc(C#N)cc4F)c3)CC2)nc2ccc(C(=O)O)cc21` [Compound 67, 2-[(4-{3-[(4-cyano-2-fluorophenyl)methoxy]benzoyl}piperazin-1-yl)methyl]-1-[(1-ethyl-1H-imidazol-5-yl)methyl]-1H-1,3-benzodiazole-6-carboxylic acid], the EC50 was > 500 nM.
As for `N#Cc1ccc(OCc2cc(OC3CCN(Cc4nc5ccc(C(=O)O)cc5n4C[C@@H]4CCO4)CC3)ccn2)c(F)c1` [Compound 277, 2-{[4-({2-[(4-cyano-2-fluorophenoxy)methyl]pyridin-4-yl}oxy)piperidin-1-yl]methyl}-1-{[(2S)-oxetan-2-yl]methyl}-1H-1,3-benzodiazole-6-carboxylic acid], the EC50 is < 50 nM.
Regarding `O=C(O)c1ccc2nc(CN3CCC(Cc4cnc(COc5ccc(Cl)cc5Cl)o4)CC3)n(C[C@@H]3CCO3)c2c1` [Example 60, (S)-2-((4-((2-((2,4-Dichlorophenoxy)methyl)oxazol-5-yl)methyl)piperidin-1-yl)methyl)-1-(oxetan-2-ylmethyl)-1H-benzo[d]imidazole-6-carboxylic acid], the EC50 is < 50 nM.
